Entries after “also recorded” stand apart in the source; their conditions may differ. Where two headings read alike, the source gives them in different places.
What was measured:
[1] = system: IL-12p70, IFN-γ, NOS2, arginase I, arginase II in lung tissue; conditions: mouse, in vivo, 6 mg/kg
C. pneumoniae = conditions: mouse, in vivo
NO production = conditions: mouse, in vivo
C. psittaci strain B577 = conditions: mouse, in vivo
C. psittaci = conditions: mouse, in vivo
splenic CD4+ T cells = conditions: mouse, in vivo, 6 mg/kg/day

Structure (SMILES): N=C(N)NN [AG, aminoguanidine]
- NOS2, arginase I and arginase II transcript levels on days 4 and 12 [1]: resembled those of BALB/c mice
- day-4 pulmonary IFN-γ transcripts [1]: significant increase
- day-4 pulmonary concentration of IL-12 p70 [1]: significant increase
- chlamydial lung loads after secondary infection (C. pneumoniae): reduced chlamydial lung loads
- gross lung disease after secondary infection (C. pneumoniae): free of gross lung disease
- interstitial pneumonia on day 7 after secondary infection (C. pneumoniae): completely abolished the development of interstitial pneumonia
- day-4 serum nitrite/nitrate (NO production; 6 mg/kg/day): 73.2 ± 3.8 µM
- day-4 serum nitrite/nitrate (NO production; 200 mg/kg/day): 39.7 ± 2.9 µM
- serum nitrite/nitrate (NO production), change in words (NO production; ip): significantly reduced; also recorded: reduced NO production of infected C57BL/6 mice in a dose-dependent manner
- chlamydial lung burden on day 7 (C. psittaci strain B577): higher chlamydial burdens
- day-12 chlamydial lung burden (C. psittaci strain B577): greatly reduced
- day-12 disease (C. psittaci strain B577): did not show significant changes
- day-12 disease (lung weight increase) (C. psittaci strain B577): developed severe day-12 disease
- day-12 disease phenotype (lung weight increase) (C. psittaci strain B577): completely reversed the severe day-12 disease phenotype; also recorded: completely protected; also recorded: protected from disease
- disease outcomes and numbers of chlamydiae in lung tissue (C. psittaci strain B577): did not change disease outcomes
- elimination of chlamydiae from lungs after day 7 (C. psittaci strain B577): significantly more rapidly
- reduction of chlamydial lung burden (C. psittaci): more than 10 fold
- chlamydial burden on day 7 after secondary infection (C. psittaci; 100 mg/kg): substantially, but not significantly, higher
- disease (interstitial pneumonia) on day 7 after secondary infection (C. psittaci; 100 mg/kg): completely abolished disease; also recorded: completely abolished the development of interstitial pneumonia
- disease on day 7 after secondary infection (C. psittaci; 100 mg/kg): marginally increased
- CD4+ splenocytes, day 4 (splenic CD4+ T cells): 28.0±0.55%

Structure (SMILES): CCC[C@H](N)C(=O)O [L-norvaline]
- day-4 serum nitrite/nitrate (NO production): 123.22 ± 38.8 µM
- serum nitrite/nitrate (NO production), change in words (NO production): significantly increased; also recorded: produced more NO
- chlamydial lung disease (lung weight increase), change in words (C. psittaci strain B577): significantly increased; also recorded: partially reverted to a disease phenotype
- chlamydial lung disease, change in words (C. psittaci strain B577): did not change the disease

Source: patent US7041466B2, “Mouse disease model for evaluation of prophylactic and therapeutic treatments of Chlamydia” (priority 2002, dated 2006)
